Reference: patent US11058700B2, “Macrocyclic lactones and uses thereof as modulators of purinergic receptors” (City of Hope, priority 2015, dated 2021)
Where a SMILES comes first, the peptide text is derived from it. The star is where a group is joined. Cbz = O=C(OCc1ccccc1)*; CH2F = FC*

Tests used:
Assay type in all cases: cell-based, mouse
4T1.2 cells = test: Cell viability (acid phosphatase assay) of cancer cells treated with Ivermectin; conditions: cells treated with Ivermectin (32 μM, 4 h in figure legends) in the presence of the agent
Description: (§1) Cell viability. Cancer cells were plated on 96 well flat-bottom plates and allowed to attach overnight. Cells were then pre-incubated with drugs for 1 h and treated with Ivermectin for 4 h. In the case of 24 h and 48 h incubations the cells, Ivermectin and drugs were plated together. All treatments and controls were done in triplicate wells and results were validated in at least two independent experiments. Following treatment the plates were washed once with PBS and cell viability was measured using the acid phosphatase assay. Briefly, cells were incubated for 1h at 37° C. in 100 μL assay buffer (0.16 M sodium acetate, 0.1% Triton-X-100, supplemented with 4-Nitrophenyl phosphate disodium salt hexahydrate, Sigma Aldrich, at 0.00263 g/ml). Reaction was stopped using 10 μL of 1N sodium hydroxide. Absorption at 405 nm was measured within 10 min using a multi-well plate reader. Mode of cell death and viability of cells in suspension was evaluated using flow cytometry. Briefly, cancer cells were pre-incubated with drugs for 30 min to 1 h, as indicated, treated with Ivermectin for 4 h in 5 ml FACS tubes , washed twice in PBS and stained with PE-conjugated Annexin V and 7AAD (1 μl per 100 μl/200,000 cancer cells) for 15 min.

4T1.2 cancer cells = test: Synergy between Ivermectin and ROS (CompuSyn CI); conditions: 4T1.2, 24 h/48 h
Description: FIGS. 2A-2C. Role of NADPH oxidases-generated ROS. […] 4T1.2 cells were labeled with a ROS detection probe and treated for 1 h with 32 μM Ivermectin in the presence of 1 mM EDTA, 5mM NAC, 5 μM DPI, 2500 μunits/ml Apyrase, 3 mM ATP, and 10 μM KN-62. […] Triangles (▴) indicate significant antagonism CI>1.0. […] 4T1.2 cancer cells were irradiated (10-20 kRad) or treated with H2O2 (10-1000 μM), PTX (0.1-1 μM), or DOX (1-4 μM) and incubated with Ivermectin for 24 h/48 h. Circles (●) indicate significant synergy CI<1.0, see Table 1. Asterisk (*) indicates p<0.05 relative to untreated or Ivermectin alone controls, respectively.
as §1, with “All treatments and controls were done in triplicate wells and results were validated in at least two independent experiments.” left out

[1] = tested on: murine and human TNBC cells; test: Reactive oxygen species
Description: Reactive oxygen and nitrogen species. Cancer cells in suspension were washed with PBS and loaded with 50 μM H2DCFDA (Molecular Probes, Life Technologies, D399) or 5 μM DAF-2 (Cayman Chemical, Catalog #85165) for 30 min at room temperature in the dark. Cells were washed twice with PBS and treated with various doses of Ivermectin in R10 medium. Cells were incubated for 1h in 5 ml FACS tubes at 37° C. and 5% CO2, and immediately analyzed by flow cytometry. Generation of intracellular ROS and NO results in corresponding increases in the GFP fluorescence of the H2DCFDA and DAF-2 probes, respectively.

4T1.2 shRNA (NT) = test: Synergy between Ivermectin and ATP (CI), non-targeting control cells
Description: (§2) FIGS. 5A-5E. CaMKII-independent P2X7-mediated killing. FIG. 5A: qPCR showing the extent of gene knockdown in 4T1.2 cells transfected with shRNA targeting the P2X7 receptor versus non-targeting (NT) control (left panel). […] One million wt, shRNA(NT) and shRNA(P2X7) 4T1.2 cells were plated and incubated for 48 h before evaluation of cell numbers and viability. FIG. 5B: P2X7 knockdown cells are more resistant to ATP and the ATP/IVM combo. 4T1.2 cells were treated for 24 h with 1-3 mM ATP, 6-10 μM Ivermectin, or combinations of ATP and Ivermectin. P2X7 knockdown suppresses the synergy between Ivermectin and high dose ATP, as shown by calculation of combination index (CI) values, see Table 2. FIG. 5C: P2X7 knockdown cells are resistant to ATP/Ivermectin induced membrane permeabilization (Asterisk (*) indicates p<0.05). […] FIG. 5E: Comparison of the protective effects of P2X7, CaMKII, and NADPH oxidases inhibition in short-term (4 h, 32 μM IVM) and long-term (24 h, 12 μM IVM) exposure of 4T1.2 cells to Ivermectin. Asterisk (*) indicates p<0.05 relative to Ivermectin alone controls.
as §1
(§3) Generation of P2X7 receptor knockdown 4T1.2 cells. 4T1.2 cells were transduced using Sigma mission shRNA lentiviral transduction particle with four P2X7 shRNA (NM_011027/TRCN0000068568, NM_011027/TRCN0000068570, NM_011027/TRCN0000068571, NM_011027/TRCN0000068572) or Non-Target control (SHC002V). The viral particles were added to growing cells in the presence of […] POLYBRENE® (Sigma, St Louis, Mo.), and incubated overnight at 37° C. Puromycin selection (2000 ng/ml) was done from third day onwards to select for stably transformed cells.

4T1.2 shRNA (P2X7) = test: Synergy between Ivermectin and ATP (CI), P2X7 knockdown cells
Description: as §2, §1, §3

Compound: CN1C(=O)C(Cc2c[nH]c3ccccc23)NC1=S (centres unmarked) [Necrostatin]
- effect on Ivermectin-induced cell death (4T1.2 cells): demonstrated some protection

Compound: Nc1ncnc2c1ncn2[C@@H](C=O)O[C@@H](C=O)COP(=O)(O)OP(=O)(O)OP(=O)(O)O [OxATP]
- effect on Ivermectin-induced cell death (4T1.2 cells): did not observe any protection

Compound: Nc1c(S(=O)(=O)[O-])cc(Nc2ccc(Cl)cc2)c2c1C(=O)c1ccccc1C2=O.[Na+] [PSB 069]
- effect on Ivermectin-induced cell death (4T1.2 cells): Ivermectin-induced cytotoxicity was suppressed

Compound: CC(=O)O[C@H]1C(=O)[C@@]2(C)[C@H]([C@H](OC(=O)c3ccccc3)[C@]3(O)C[C@H](OC(=O)[C@H](O)[C@@H](NC(=O)c4ccccc4)c4ccccc4)C(C)=C1C3(C)C)[C@]1(OC(C)=O)CO[C@@H]1C[C@@H]2O [PTX, paclitaxel]
- CompuSyn CI values (4T1.2 cancer cells; PTX 0.1 + Ivermectin 1): .35
- CompuSyn CI values (4T1.2 cancer cells; PTX 0.1 + Ivermectin 2): .52
- CompuSyn CI values (4T1.2 cancer cells; PTX 1 + Ivermectin 1): .30
- CompuSyn CI values (4T1.2 cancer cells; PTX 1 + Ivermectin 2): .51

Compound: CC(=O)N[C@@H](CS)C(=O)O [NAC]
- blockade of Ivermectin-induced ROS by ROS scavengers [1]: less effective against Ivermectin-induced ROS
- effect on Ivermectin-induced cell death (4T1.2 cells): completely failed to prevent, or even delay, Ivermectin-induced killing

Compound: OO [H2O2]
- CompuSyn CI values (4T1.2 cancer cells; H2O2 100 + Ivermectin 8): .46
- CompuSyn CI values (4T1.2 cancer cells; H2O2 100 + Ivermectin 16): .39
- CompuSyn CI values (4T1.2 cancer cells; H2O2 1000 + Ivermectin 8): .24
- CompuSyn CI values (4T1.2 cancer cells; H2O2 1000 + Ivermectin 16): .20

Compound: Nc1ncnc2c1ncn2[C@@H]1O[C@H](COP(=O)(O)OP(=O)(O)OP(=O)(O)O)[C@@H](O)[C@H]1O [ATP, adenosine triphosphate]
- CI values (4T1.2 shRNA (NT); ATP 1 + I 6, 24 h): 1.18
- CI values (4T1.2 shRNA (NT); ATP 1 + I 8, 24 h): 1.01
- CI values (4T1.2 shRNA (NT); ATP 1 + I 10, 24 h): 1.24
- CI values (4T1.2 shRNA (NT); ATP 2 + I 6, 24 h): 1.17
- CI values (4T1.2 shRNA (NT); ATP 2 + I 8, 24 h): 1.01
- CI values (4T1.2 shRNA (NT); ATP 2 + I 10, 24 h): 1.10
- CI values (4T1.2 shRNA (NT); ATP 3 + I 6, 24 h): 0.67
- CI values (4T1.2 shRNA (NT); ATP 3 + I 8, 24 h): 0.64
- CI values (4T1.2 shRNA (NT); ATP 3 + I 10, 24 h): 0.63
- CI values (4T1.2 shRNA (P2X7); ATP 1 + I 6, 24 h): 1.49
- CI values (4T1.2 shRNA (P2X7); ATP 1 + I 8, 24 h): 1.39
- CI values (4T1.2 shRNA (P2X7); ATP 1 + I 10, 24 h): 1.35
- CI values (4T1.2 shRNA (P2X7); ATP 2 + I 6, 24 h): 1.18
- CI values (4T1.2 shRNA (P2X7); ATP 2 + I 8, 24 h): 1.03
- CI values (4T1.2 shRNA (P2X7); ATP 2 + I 10, 24 h): 1.11
- CI values (4T1.2 shRNA (P2X7); ATP 3 + I 6, 24 h): 0.96
- CI values (4T1.2 shRNA (P2X7); ATP 3 + I 8, 24 h): 0.91
- CI values (4T1.2 shRNA (P2X7); ATP 3 + I 10, 24 h): 0.86

Compound: Apyrase
- effect on Ivermectin-induced cell death (4T1.2 cells): Ivermectin killing was initially enhanced

Compound: CCO[C@@H]1OC(=O)C[C@@H]1NC(=O)[C@@H]1CCCN1C(=O)[C@@H](NC(=O)c1ccc(N)c(Cl)c1)C(C)(C)C [VX-765]
- effect on Ivermectin-induced cell death (4T1.2 cells): demonstrated some protection

Compound: CCCCC1(C2CCCC2)Cc2cc(OCCCC(=O)O)c(Cl)c(Cl)c2C1=O (centres unmarked) [DCPIB]
- effect on Ivermectin-induced cell death (4T1.2 cells): exacerbates Ivermectin killing

Compound: COc1cccc2c1C(=O)c1c(O)c3c(c(O)c1C2=O)C[C@@](O)(C(=O)CO)C[C@@H]3O[C@H]1C[C@H](N)[C@H](O)[C@H](C)O1 [DOX, doxorubicin]
- CompuSyn CI values (4T1.2 cancer cells; DOX 1 + Ivermectin 2): .43
- CompuSyn CI values (4T1.2 cancer cells; DOX 1 + Ivermectin 4): .61
- CompuSyn CI values (4T1.2 cancer cells; DOX 2 + Ivermectin 2): .42
- CompuSyn CI values (4T1.2 cancer cells; DOX 2 + Ivermectin 4): .56

Compound: C[C@H]1O[C@@H](O[C@H]2[C@@H](O)C[C@H](O[C@H]3[C@@H](O)C[C@H](O[C@H]4CC[C@@]5(C)[C@H](CC[C@@H]6[C@@H]5C[C@@H](O)[C@]5(C)[C@@H](C7=CC(=O)OC7)CC[C@]65O)C4)O[C@@H]3C)O[C@@H]2C)C[C@H](O)[C@@H]1O [Digoxin]
- effect on Ivermectin-induced cell death (4T1.2 cells): demonstrated some protection

Compound: O=C(O)CN(CCN(CC(=O)O)CC(=O)O)CC(=O)O [EDTA]
- effect on Ivermectin-induced cell death (4T1.2 cells): cell death can be suppressed

Compound: Cc1ccc(C(=O)Nc2ccc(S(=O)(=O)O)c3cc(S(=O)(=O)O)cc(S(=O)(=O)O)c23)cc1NC(=O)c1cccc(NC(=O)Nc2cccc(C(=O)Nc3cc(C(=O)Nc4ccc(S(=O)(=O)O)c5cc(S(=O)(=O)O)cc(S(=O)(=O)O)c45)ccc3C)c2)c1 [Suramin]
- effect on Ivermectin-induced cell death (4T1.2 cells): Ivermectin killing was initially enhanced

Compound: CCCN(CCC)S(=O)(=O)c1ccc(C(=O)O)cc1 [Probenecid]
- effect on Ivermectin-induced cell death (4T1.2 cells): enhanced Ivermectin cytotoxicity

Compound: COC(=O)C[C@H](NC(=O)[C@H](C)NC(=O)[C@@H](NC(=O)OCc1ccccc1)C(C)C)C(=O)CF [Z-vad-fmk] (Cbz-Val-Ala-Asp(OMe)-CH2F)
- effect on Ivermectin-induced cell death (4T1.2 cells): inhibited cell death very effectively

Compound: Cc1nc(N=Nc2ccc(S(=O)(=O)O)cc2S(=O)(=O)O)c(COP(=O)(O)O)c(C=O)c1O [PPADs]
- effect on Ivermectin-induced cell death (4T1.2 cells): did not observe any protection

Compound: c1ccc2c(c1)[I+]c1ccccc1-2 [DPI, Diphenyleneiodonium]
- effect on Ivermectin-induced cell death (4T1.2 cells): transiently block Ivermectin-induced killing

Compound: N[C@@H](CCC(=O)N[C@@H](CS)C(=O)NCC(=O)O)C(=O)O [GSH]
- blockade of Ivermectin-induced ROS by ROS scavengers [1]: less effective against Ivermectin-induced ROS
- effect on Ivermectin-induced cell death (4T1.2 cells): completely failed to prevent, or even delay, Ivermectin-induced killing
